Measured values from patent US6720330B2, “Somatostatin antagonists and agonists that act at the SST subtype 2 receptor” (Pfizer Inc., priority 2000, dated 2004).
Where no end group is shown, it is not given here.

System: somatostatin receptor
Experiment: Rat pituitary assay for somatostatin receptor antagonists (cAMP content of GH4C1 cells)
Type: cell-based
Settings: GH4C1 pituitary cell line; 100 nM VIP, 10 nM somatostatin 14

| Molecule | cAMP content of the GH4C1 cells |
| --- | --- |
| vasoactive intestinal peptide (HSDAVFTDNYTRLRKQMAVKKYLNSILN; ends and bridges not checked; UniProt P01282 125-152, looked up) [VIP, endogenous peptide that stimulates GH secretion] | increased cAMP content |
| C[C@H](N)C(=O)NCC(=O)N[C@H]1CSSC[C@@H](C(=O)O)NC(=O)[C@H](CO)NC(=O)[C@H]([C@@H](C)O)NC(=O)[C@H](Cc2ccccc2)NC(=O)[C@H]([C@@H](C)O)NC(=O)[C@H](CCCCN)NC(=O)[C@H](Cc2c[nH]c3ccccc23)NC(=O)[C@H](Cc2ccccc2)NC(=O)[C@H](Cc2ccccc2)NC(=O)[C@H](CC(N)=O)NC(=O)[C@H](CCCCN)NC1=O [somatostatin, somatostatin 14] | partial inhibition |
